Measurements reported in ChEMBL document CHEMBL3991601, “The target landscape of clinical kinase drugs” (Science, 2017).
Active and inactive are the calls of the source. For most assays here, no stated cut-off is given here; in the data, actives have a measured Kd and inactives only a lower limit.

What was measured:
[1] = target: Dual specificity protein kinase CLK1 (Homo sapiens, UniProt P49759)
[2] = target: T1, Very long-chain specific acyl-CoA dehydrogenase, mitochondrial (Homo sapiens, UniProt P49748)
T1 sequence (P49748 whole entry): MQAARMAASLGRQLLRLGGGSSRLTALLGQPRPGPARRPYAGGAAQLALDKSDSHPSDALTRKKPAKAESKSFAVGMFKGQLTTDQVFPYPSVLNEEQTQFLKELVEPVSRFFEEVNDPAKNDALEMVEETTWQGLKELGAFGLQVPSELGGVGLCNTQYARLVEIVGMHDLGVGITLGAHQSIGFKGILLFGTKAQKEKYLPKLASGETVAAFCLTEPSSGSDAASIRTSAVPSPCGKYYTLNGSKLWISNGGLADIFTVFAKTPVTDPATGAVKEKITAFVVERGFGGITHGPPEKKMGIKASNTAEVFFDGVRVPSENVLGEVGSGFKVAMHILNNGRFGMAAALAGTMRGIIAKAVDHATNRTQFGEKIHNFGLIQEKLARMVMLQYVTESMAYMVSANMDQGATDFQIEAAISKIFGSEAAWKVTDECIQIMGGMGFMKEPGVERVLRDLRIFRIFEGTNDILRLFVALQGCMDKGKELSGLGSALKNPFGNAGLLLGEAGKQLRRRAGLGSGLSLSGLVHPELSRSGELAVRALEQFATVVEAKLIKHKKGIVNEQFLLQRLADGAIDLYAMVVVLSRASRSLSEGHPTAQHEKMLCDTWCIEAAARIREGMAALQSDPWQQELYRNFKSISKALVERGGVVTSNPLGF

[3] = target: T2, Discoidin domain-containing receptor 2 (Homo sapiens, UniProt Q16832)
T2 sequence (Q16832 whole entry): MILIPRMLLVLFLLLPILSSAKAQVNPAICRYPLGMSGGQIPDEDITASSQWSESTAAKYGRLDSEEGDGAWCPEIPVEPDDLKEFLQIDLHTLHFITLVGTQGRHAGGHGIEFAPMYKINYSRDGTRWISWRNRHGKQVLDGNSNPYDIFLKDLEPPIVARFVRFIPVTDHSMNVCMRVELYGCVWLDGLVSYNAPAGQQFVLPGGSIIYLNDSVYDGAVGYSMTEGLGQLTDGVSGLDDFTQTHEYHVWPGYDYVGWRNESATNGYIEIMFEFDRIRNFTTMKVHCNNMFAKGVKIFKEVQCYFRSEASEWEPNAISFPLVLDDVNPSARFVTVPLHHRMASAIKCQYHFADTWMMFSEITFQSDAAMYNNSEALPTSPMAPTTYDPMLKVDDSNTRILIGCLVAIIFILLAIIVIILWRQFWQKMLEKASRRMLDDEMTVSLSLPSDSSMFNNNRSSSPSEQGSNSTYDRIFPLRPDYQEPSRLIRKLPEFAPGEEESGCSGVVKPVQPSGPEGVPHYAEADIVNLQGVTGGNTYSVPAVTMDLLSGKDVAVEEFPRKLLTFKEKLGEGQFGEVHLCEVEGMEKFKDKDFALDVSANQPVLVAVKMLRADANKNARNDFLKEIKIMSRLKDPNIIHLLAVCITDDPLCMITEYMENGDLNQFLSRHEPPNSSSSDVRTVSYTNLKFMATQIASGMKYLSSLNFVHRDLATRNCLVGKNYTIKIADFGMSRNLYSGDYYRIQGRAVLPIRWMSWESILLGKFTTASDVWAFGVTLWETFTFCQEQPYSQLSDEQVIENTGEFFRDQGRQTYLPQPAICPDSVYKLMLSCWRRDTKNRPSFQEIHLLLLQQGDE

Midasin = Midasin (Homo sapiens, UniProt Q9NU22)
[4] = target: Protein kinase C alpha type (Homo sapiens, UniProt P17252)
[5] = target: Receptor-interacting serine/threonine-protein kinase 3 (Homo sapiens, UniProt Q9Y572)
Chain of Receptor-interacting serine/threonine-protein kinase 3 (Q9Y572 whole entry): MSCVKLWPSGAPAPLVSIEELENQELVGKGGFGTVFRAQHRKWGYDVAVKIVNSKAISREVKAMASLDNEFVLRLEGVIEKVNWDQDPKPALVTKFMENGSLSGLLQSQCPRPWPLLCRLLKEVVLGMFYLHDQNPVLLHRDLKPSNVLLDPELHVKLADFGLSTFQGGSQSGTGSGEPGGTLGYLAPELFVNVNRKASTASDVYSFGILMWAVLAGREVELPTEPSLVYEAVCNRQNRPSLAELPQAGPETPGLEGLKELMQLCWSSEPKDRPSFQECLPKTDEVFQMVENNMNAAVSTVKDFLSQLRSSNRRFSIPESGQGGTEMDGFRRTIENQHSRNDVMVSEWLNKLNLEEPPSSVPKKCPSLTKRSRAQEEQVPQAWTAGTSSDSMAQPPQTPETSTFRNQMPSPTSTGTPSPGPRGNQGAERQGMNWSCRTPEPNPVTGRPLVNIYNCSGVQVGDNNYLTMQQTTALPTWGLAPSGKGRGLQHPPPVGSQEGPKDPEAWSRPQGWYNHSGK

[6] = target: T3, NUAK family SNF1-like kinase 2 (Homo sapiens, UniProt Q9H093)
T3 sequence (Q9H093 whole entry): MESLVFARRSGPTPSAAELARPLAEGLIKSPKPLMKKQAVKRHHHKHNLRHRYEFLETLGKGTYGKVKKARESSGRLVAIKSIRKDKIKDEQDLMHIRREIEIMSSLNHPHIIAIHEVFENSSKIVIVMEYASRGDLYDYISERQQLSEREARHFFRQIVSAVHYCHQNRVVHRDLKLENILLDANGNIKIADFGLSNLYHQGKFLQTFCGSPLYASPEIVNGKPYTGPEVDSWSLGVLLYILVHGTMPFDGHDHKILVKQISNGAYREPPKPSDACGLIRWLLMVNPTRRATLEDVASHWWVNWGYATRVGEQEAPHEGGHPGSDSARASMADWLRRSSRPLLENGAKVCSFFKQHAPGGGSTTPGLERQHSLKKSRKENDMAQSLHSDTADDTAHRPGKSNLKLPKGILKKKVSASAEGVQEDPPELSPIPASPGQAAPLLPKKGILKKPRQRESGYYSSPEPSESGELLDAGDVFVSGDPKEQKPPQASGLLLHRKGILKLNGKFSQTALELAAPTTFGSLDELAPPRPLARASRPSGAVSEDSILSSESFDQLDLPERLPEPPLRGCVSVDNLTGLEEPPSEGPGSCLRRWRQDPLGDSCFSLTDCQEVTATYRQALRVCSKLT

dCTP pyrophosphatase 1 = target: T4, dCTP pyrophosphatase 1 (Homo sapiens, UniProt Q9H773)
T4 sequence (Q9H773 whole entry): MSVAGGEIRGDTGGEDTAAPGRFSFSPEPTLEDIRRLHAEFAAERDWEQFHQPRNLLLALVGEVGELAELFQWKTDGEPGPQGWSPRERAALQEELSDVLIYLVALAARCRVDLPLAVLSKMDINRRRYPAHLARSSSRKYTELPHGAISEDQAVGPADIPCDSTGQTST

[7] = target: Maternal embryonic leucine zipper kinase (Homo sapiens, UniProt Q14680)
Chain of Maternal embryonic leucine zipper kinase (Q14680 whole entry): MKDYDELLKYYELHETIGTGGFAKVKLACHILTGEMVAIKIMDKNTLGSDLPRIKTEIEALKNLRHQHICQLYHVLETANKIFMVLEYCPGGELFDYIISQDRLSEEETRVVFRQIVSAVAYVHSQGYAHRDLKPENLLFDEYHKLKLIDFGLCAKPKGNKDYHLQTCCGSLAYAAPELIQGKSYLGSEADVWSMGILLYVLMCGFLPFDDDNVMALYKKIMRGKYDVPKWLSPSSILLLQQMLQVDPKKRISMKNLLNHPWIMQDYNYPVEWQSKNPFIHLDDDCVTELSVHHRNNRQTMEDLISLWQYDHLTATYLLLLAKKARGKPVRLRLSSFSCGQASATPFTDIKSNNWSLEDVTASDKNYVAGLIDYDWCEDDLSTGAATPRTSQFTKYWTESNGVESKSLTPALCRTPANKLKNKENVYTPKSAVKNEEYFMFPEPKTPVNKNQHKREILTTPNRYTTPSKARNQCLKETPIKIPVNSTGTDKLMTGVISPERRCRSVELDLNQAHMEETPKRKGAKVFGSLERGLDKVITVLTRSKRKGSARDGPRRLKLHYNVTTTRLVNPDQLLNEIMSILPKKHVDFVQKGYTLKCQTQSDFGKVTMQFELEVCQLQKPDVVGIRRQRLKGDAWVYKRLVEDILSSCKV

Chain of Dual specificity protein kinase CLK1 (P49759 whole entry): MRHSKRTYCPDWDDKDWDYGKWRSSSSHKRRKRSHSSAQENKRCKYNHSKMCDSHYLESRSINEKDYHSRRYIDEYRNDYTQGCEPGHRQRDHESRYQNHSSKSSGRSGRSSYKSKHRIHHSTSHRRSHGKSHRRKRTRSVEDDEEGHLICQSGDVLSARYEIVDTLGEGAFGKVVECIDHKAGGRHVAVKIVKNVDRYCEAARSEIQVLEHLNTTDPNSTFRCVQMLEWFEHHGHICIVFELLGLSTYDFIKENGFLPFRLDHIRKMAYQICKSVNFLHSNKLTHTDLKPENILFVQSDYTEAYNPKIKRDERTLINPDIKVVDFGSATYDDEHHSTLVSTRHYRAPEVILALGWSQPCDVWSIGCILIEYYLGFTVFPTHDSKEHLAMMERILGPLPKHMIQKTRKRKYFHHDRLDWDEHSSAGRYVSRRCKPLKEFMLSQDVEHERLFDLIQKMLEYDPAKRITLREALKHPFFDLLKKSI

| Kd [1] | Kd [2] | Kd [3] | Kd (Midasin) | Kd [4] | Kd [5] | Kd [6] | Kd (dCTP pyrophosphatase 1) | Kd [7] | SMILES |
| --- | --- | --- | --- | --- | --- | --- | --- | --- | --- |
| > 30 µM (inactive) | > 30 µM (inactive) | > 30 µM (inactive) | > 30 µM (inactive) | > 30 µM (inactive) | > 30 µM (inactive) | > 30 µM (inactive) | > 30 µM (inactive) | > 30 µM (inactive) | CO[C@H]1C[C@@H]2CC[C@@H](C)[C@@](O)(O2)C(=O)C(=O)N2CCCC[C@H]2C(=O)O[C@H]([C@H](C)C[C@@H]2CC[C@@H](OC(=O)C(C)(CO)CO)[C@H](OC)C2)CC(=O)[C@H](C)/C=C(\C)[C@@H](O)[C@@H](OC)C(=O)[C@H](C)C[C@H](C)/C=C/C=C/C=C/1C [TEMSIROLIMUS] |
| > 30 µM (inactive) | > 30 µM (inactive) | 1.52 µM (active) | > 30 µM (inactive) | > 30 µM (inactive) | 0.366 µM (active) | > 30 µM (inactive) | > 30 µM (inactive) | > 30 µM (inactive) | COc1cc2c(Nc3ccc(Cl)c(Cl)c3F)ncnc2cc1OC[C@@H]1C[C@@H]2CN(C)C[C@@H]2C1 [TESEVATINIB] |
| > 30 µM (inactive) | > 30 µM (inactive) | > 30 µM (inactive) | > 30 µM (inactive) | > 30 µM (inactive) | > 30 µM (inactive) | > 30 µM (inactive) | > 30 µM (inactive) | > 30 µM (inactive) | O=C(Cc1ccc(-c2ccc(OCCN3CCOCC3)cc2)cn1)NCc1ccccc1 [TIRBANIBULIN] |
| > 30 µM (inactive) | > 30 µM (inactive) | 4.96 µM (active) | > 30 µM (inactive) | 2.28 µM (active) | > 30 µM (inactive) | > 30 µM (inactive) | > 30 µM (inactive) | > 30 µM (inactive) | CC(C)c1cc(CNc2nc(Nc3cc(C4CC4)[nH]n3)cc(N3CCN(C)CC3)n2)on1 [XL-228] |
| 0.018 µM (active) | > 30 µM (inactive) | > 30 µM (inactive) | > 30 µM (inactive) | 3.28 µM (active) | > 30 µM (inactive) | > 30 µM (inactive) | > 30 µM (inactive) | > 30 µM (inactive) | C[C@@H](N)c1ccc(C(=O)Nc2ccnc3[nH]ccc23)cc1 [Y-39983] |
| > 30 µM (inactive) | > 30 µM (inactive) | > 30 µM (inactive) | > 30 µM (inactive) | 0.885 µM (active) | > 30 µM (inactive) | > 30 µM (inactive) | > 30 µM (inactive) | > 30 µM (inactive) | CN1C/C=C/CCOc2cccc(c2)-c2ccnc(n2)Nc2cccc(c2)C1 [ZOTIRACICLIB] |
